How the values were obtained:
[1] = test system: Human immunodeficiency virus 1; experiment: Antiviral activity against wild type HIV-1 IIIB infected in human MT4 cells assessed as protection against virus-induced cytopathic effect incubated for 5 days by MTT assay; format: functional, organism-based; conditions: Human immunodeficiency virus 1, IIIB, MT4, 120 h
[2] = test system: Human immunodeficiency virus 1; experiment: Antiviral activity against HIV-1 RES056 harboring RT K103N/Y181C double mutant infected in human MT4 cells assessed as protection against virus-induced cytopathic effect incubated for 5 days by MTT assay; format: functional, organism-based; conditions: Human immunodeficiency virus 1, RES056, MT4, 120 h
[3] = Cytotoxicity against human MT4 cells assessed as reduction in cell viability measured after 5 days by MTT assay; format: toxicity, cell-based; conditions: time 5 day
[4] = Selectivity index, ratio of CC50 for cytotoxicity against human MT4 cells to EC50 for antiviral activity against wild type HIV-1 IIIB infected in human MT4 cells; format: toxicity, cell-based; conditions: read-out: Ratio CC50/EC50
[5] = Selectivity index, ratio of CC50 for cytotoxicity against human MT4 cells to EC50 for antiviral activity against HIV-1 RES056 harboring RT K103N/Y181C double mutant infected in human MT4 cells; format: toxicity, cell-based; conditions: read-out: Ratio CC50/EC50

Structure (SMILES) | EC50 [1] [µM] | EC50 [2] [µM] | CC50 at 120 h [3] [µM] | selectivity ratio [4] | selectivity ratio [5]
Cc1cc(-c2ccc(F)cc2)cc(C)c1Oc1nc(Nc2ccc(C#N)nc2)nc2sccc12 | 0.802 | > 2.23 | 2.23 | 3 | < 1
N#C/C=C/c1cc(F)c(Oc2nc(Nc3ccc(C#N)c(F)c3)nc3ccsc23)c(F)c1 | 0.109 | 6.71 | 96 | 878 | 14
Cc1cc(-c2ccc(C#N)cc2)cc(C)c1Oc1nc(Nc2ccc(C#N)nc2)nc2sccc12 | 0.0109 | 1.53 | 181 | 16600 | 119
Cc1cc(-c2ccc(C#N)cc2)cc(C)c1Oc1nc(Nc2ccc(C#N)c(F)c2)nc2ccsc12 | 0.711 | 6.35 | 71.5 | 101 | 11
Cc1cc(-c2ccc(F)cc2)cc(C)c1Oc1nc(Nc2ccc(C#N)nc2)nc2ccsc12 | 0.451 | > 6.13 | 6.13 | 14 | < 1
Cc1cc(C#N)cc(C)c1Oc1nc(NC2CCN(c3ccc([N+](=O)[O-])cc3F)CC2)nc2ccsc12 | 0.0321 | > 30.3 | 740 | 23100 | < 1
Cc1cc(/C=C/C#N)cc(C)c1Oc1nc(NC2CCN(c3ccc(N)cc3F)CC2)nc2ccsc12 | 0.0313 | 0.876 | 23 | 735 | 26
Cc1cc(C#N)cc(C)c1Oc1nc(NC2CCN(c3ccc(N)cc3F)CC2)nc2ccsc12 | 0.0404 | > 12.2 | 12.1 | 300 | < 1
N#C/C=C/c1cc(F)c(Oc2nc(Nc3ccc(C#N)nc3)nc3sccc23)c(F)c1 | 0.00698 | 7.55 | 12.8 | 1840 | 1.7
Cc1cc(C#N)cc(C)c1Oc1nc(NC2CCN(c3ccc([N+](=O)[O-])cc3)CC2)nc2sccc12 | 0.0206 | 53.8 | > 249 | > 12100 | > 5
Cc1cc(/C=C/C#N)cc(C)c1Oc1nc(NC2CCN(c3c(F)cc(NS(N)(=O)=O)cc3F)CC2)nc2ccsc12 | 0.0371 | 1.94 | 20 | 539 | 10
Cc1cc(-c2ccc(C#N)cc2)cc(C)c1Oc1nc(Nc2ccc(C#N)c(F)c2)nc2sccc12 | 0.0847 | 0.493 | > 254 | > 3010 | > 517
Cc1cc(-c2ccc(F)cc2)cc(C)c1Oc1nc(Nc2ccc(C#N)c(F)c2)nc2sccc12 | 0.583 | 11.1 | 28.9 | 50 | 2.6
Cc1cc(C#N)cc(C)c1Oc1nc(NC2CCN(c3c(F)cc(NS(N)(=O)=O)cc3F)CC2)nc2sccc12 | 0.0123 | > 3.96 | 3.96 | 322 | < 1
Cc1cc(/C=C/C#N)cc(C)c1Oc1nc(NC2CCN(c3ccc([N+](=O)[O-])cc3F)CC2)nc2sccc12 | 0.0296 | 1.35 | > 229 | > 7740 | > 169
Cc1cc(C#N)cc(C)c1Oc1nc(NC2CCN(c3ccc(NS(N)(=O)=O)cc3F)CC2)nc2sccc12 | 0.0079 | 3.41 | 21.5 | 2720 | 6
Cc1cc(-c2ccc(C#N)cc2)cc(C)c1Oc1nc(Nc2ccc(C#N)nc2)nc2ccsc12 | 0.00762 | 0.381 | 214 | 28100 | 563
Cc1cc(/C=C/C#N)cc(C)c1Oc1nc(NC2CCN(c3ccc(NS(N)(=O)=O)cc3F)CC2)nc2ccsc12 | 0.00746 | 0.832 | 21.7 | 2910 | 26
Cc1cc(-c2ccc(F)cc2)cc(C)c1Oc1nc(Nc2ccc(C#N)c(F)c2)nc2ccsc12 | 0.695 | 8.6 | 97.3 | 140 | 11
Cc1cc(C#N)cc(C)c1Oc1nc(NC2CCN(c3c(F)cc(N)cc3F)CC2)nc2ccsc12 | 0.0374 | > 5.54 | 5.45 | 146 | < 1

Structure (SMILES) | EC50 [1] [µM] | EC50 [2] [µM] | CC50 at 120 h [3] [µM] | selectivity ratio [4] | selectivity ratio [5]
N#C/C=C/c1cc(F)c(Oc2nc(Nc3ccc(C#N)c(F)c3)nc3cc[nH]c23)c(F)c1 | 0.038 | 0.63 | 10.2 | 268 | 16
Cc1cc(C#N)cc(C)c1Oc1nc(NC2CCN(c3ccc([N+](=O)[O-])cc3F)CC2)nc2sccc12 | 0.04 | > 37.4 | 37.4 | 935 | < 1
Cc1cc(/C=C/C#N)cc(C)c1Oc1nc(NC2CCN(c3ccc(N)cc3F)CC2)nc2sccc12 | 0.0325 | 1.06 | 13.6 | 418 | 13
N#C/C=C/c1cc(F)c(Oc2nc(Nc3ccc(C#N)nc3)nc3cc[nH]c23)c(F)c1 | 0.147 | > 29 | 29 | 197 | < 1
Cc1cc(/C=C/C#N)cc(C)c1Oc1nc(NC2CCN(c3c(F)cc([N+](=O)[O-])cc3F)CC2)nc2ccsc12 | 0.125 | 7.67 | 99.5 | 794 | 13
Cc1cc(C#N)cc(C)c1Oc1nc(NC2CCN(c3c(F)cc([N+](=O)[O-])cc3F)CC2)nc2ccsc12 | 0.057 | > 30.3 | 740 | 12900 | < 1
Cc1cc(C#N)cc(C)c1Oc1nc(NC2CCN(c3ccc(NS(N)(=O)=O)cc3F)CC2)nc2ccsc12 | 0.0229 | 4.93 | 24.7 | 1080 | 5
Cc1cc(/C=C/C#N)cc(C)c1Oc1nc(NC2CCN(c3ccc([N+](=O)[O-])cc3F)CC2)nc2ccsc12 | 0.14 | > 14.2 | 14.2 | 101 | < 1
Cc1cc(C#N)cc(C)c1Oc1nc(NC2CCN(c3ccc(N)cc3)CC2)nc2sccc12 | 0.0359 | 1.74 | 31 | 864 | 18
Cc1cc(C#N)cc(C)c1Oc1nc(NC2CCN(c3c(F)cc(N)cc3F)CC2)nc2sccc12 | 0.0325 | > 5.45 | 5.45 | 168 | < 1
Cc1cc(/C=C/C#N)cc(C)c1Oc1nc(NC2CCN(c3c(F)cc(N)cc3F)CC2)nc2ccsc12 | 0.032 | 1.57 | 7.88 | 246 | 5
Cc1cc(/C=C/C#N)cc(C)c1Oc1nc(NC2CCN(c3c(F)cc([N+](=O)[O-])cc3F)CC2)nc2sccc12 | 0.068 | 27.4 | > 222 | > 3260 | > 8
Cc1cc(/C=C/C#N)cc(C)c1Oc1nc(Nc2ccc(C#N)nc2)nc2cc[nH]c12 | 1.63 | > 7.94 | 7.94 | 5 | < 1
Cc1cc(C#N)cc(C)c1Oc1nc(NC2CCN(c3c(F)cc(NS(N)(=O)=O)cc3F)CC2)nc2ccsc12 | 0.0353 | 7.51 | 12.6 | 357 | 2
Cc1cc(C#N)cc(C)c1Oc1nc(NC2CCN(c3c(F)cc([N+](=O)[O-])cc3F)CC2)nc2sccc12 | 0.0451 | > 211 | > 233 | > 5170 | < 1
N#C/C=C/c1cc(F)c(Oc2nc(Nc3ccc(C#N)nc3)nc3c2COC3)c(F)c1 | 0.00577 | 12.2 | 243 | 42100 | 20
Cc1cc(C#N)cc(C)c1Oc1nc(NC2CCN(c3ccc(N)cc3F)CC2)nc2sccc12 | 0.0207 | 2.6 | 26.9 | 1300 | 10
Cc1cc(/C=C/C#N)cc(C)c1Oc1nc(Nc2ccc(C#N)c(F)c2)nc2cc[nH]c12 | 4.47 | 45.8 | 188 | 42 | 4.1
N#C/C=C/c1cc(F)c(Oc2nc(Nc3ccc(C#N)c(F)c3)nc3sccc23)c(F)c1 | 0.0524 | > 117 | 117 | 2240 | < 1
Cc1cc(C#N)cc(C)c1Oc1nc(NC2CCN(c3ccc(NS(N)(=O)=O)cc3)CC2)nc2sccc12 | 0.0129 | 0.633 | 24.9 | 1930 | 39

Source: ChEMBL document CHEMBL5236598, “Lead Optimization and Avoidance of Metabolic-perturbing Motif Developing Novel Diarylpyrimidines as Potent HIV-1 NNRTIs” (J Med Chem, 2022)
